Assay results reported in US4471131A, “Novel silyl esters of N-phosphonomethylglycine” (Monsanto Company, priority 1983, dated 1984).

Assays:
Test in all cases: post-emergence herbicidal activity, greenhouse
Format in all cases: in vivo
Morningglory = test system: Morningglory
Text: (§1) A good grade of top soil is placed in aluminum pans having holes in the bottom and compacted to a depth of 0.95 to 1.27 cm. from the top of the pan. A predetermined number of seeds of each of several dicotyledonous and moncotyledonous annual plant species and/or vegetative propagules for the perennial plant species were placed on the soil and pressed into the soil surface. The seeds and/or vegetative propagules are covered with soil and leveled. The pans are then placed on a sand bench in the greenhouse and watered from below as needed. After the plants reach the desired age (two to three weeks), each pan, except for the control pans, is removed individually to a spraying chamber and sprayed by means of an atomizer at the rates noted. In the spray solution is an amount of an emulsifying agent mixture to give a spray solution or suspension which contains about 0.4% by weight of the emulsifier. The spray solution or suspension contains a sufficient amount of the candidate chemical in order to give application rates corresponding to those set forth in the tables. The pans were returned to the greenhouse and watered as before and the injury to the plants as compared to the control is observed at approximately two and four weeks and the results recorded. In the tables, WAT means "weeks after treatment."
(§2) The post-emergent herbicidal activity index used in Tables II and III is as follows:
(§3) The plant species utilized in these tests are identified by letter in accordance with the following legend: […]

Common Lambsquarters = test system: Common Lambsquarters
Text: as §1, §2, §3

Large Crabgrass = settings: Table III; 2 WAT; 5.6 kg/h
Text: as §1, §2, §3

Rice = settings: Table III, 2 WAT
Text: as §1, §2, §3

Downy Brome = test system: Downy Brome
Text: as §1, §2, §3

Wild Buckwheat = settings: Table III, 2 WAT
Text: as §1, §2, §3

Cocklebur = test system: Cocklebur
Text: as §1, §2, §3

Sugar Beet = settings: Table III; 2 WAT; 5.6 kg/h
Text: as §1, §2, §3

Johnsongrass = settings: Table II, formulated immediately prior to treatment
Text: as §1, §2, §3

Quackgrass = settings: Table II, formulated immediately prior to treatment
Text: as §1, §2, §3

Hemp Sesbania = settings: Table III, 2 WAT
Text: as §1, §2, §3

Pennsylvania Smartweed = test system: Pennsylvania Smartweed
Text: as §1, §2, §3

Yellow Nutsedge = settings: Table II, formulated immediately prior to treatment
Text: as §1, §2, §3

Soybean = settings: Table III, 2 WAT
Text: as §1, §2, §3

Panicum Spp = settings: Table III; 2 WAT; 5.6 kg/h
Text: as §1, §2, §3

Velvetleaf = test system: Velvetleaf
Text: as §1, §2, §3

Canada Thistle = settings: Table II, formulated immediately prior to treatment
Text: as §1, §2, §3

Barnyardgrass = test system: Barnyardgrass
Text: as §1, §2, §3

[1] = Table II, 2 WAT, 5.6 kg/h, formulated immediately prior to treatment
[2] = Table II, 2 WAT, 11.2 kg/h, formulated immediately prior to treatment
[3] = Table II, 4 WAT, 5.6 kg/h, formulated immediately prior to treatment
[4] = Table II, 4 WAT, 11.2 kg/h, formulated immediately prior to treatment

`CC(C)(C)[Si](C)(C)OP(=O)(CNCC(=O)OCCc1ccccc1)O[Si](C)(C)C(C)(C)C` [Ex. 10, Glycine, N--((Bis[((1,1-Dimethylethyl)Dimethylsilyl)Oxy]Phosphinyl)Methyl)-,2-Phenylethyl Ester Hydrate] was tested, and the “Plant Response Index (D)” value (Morningglory; [1]) was 1 (25-49% inhibition), the “Plant Response Index (D)” value (Morningglory; [2]) was 2 (50-74% inhibition) and the “Plant Response Index (D)” value (Morningglory; [3]) was 0 (0-24% inhibition). The “Plant Response Index (D)” value (Morningglory; [4]) was 2 (50-74% inhibition), the “Plant Response Index (D)” value (Morningglory; Table III, 2 WAT, 5.6 kg/h) was 0 (0-24% inhibition) and the “Plant Response Index (E)” value (Common Lambsquarters; [1]) was 2 (50-74% inhibition). For the same molecule, the “Plant Response Index (E)” value (Common Lambsquarters; [2]) was 3 (75-99% inhibition), the “Plant Response Index (E)” value (Common Lambsquarters; [3]) was 3 (75-99% inhibition) and the “Plant Response Index (E)” value (Common Lambsquarters; [4]) was 3 (75-99% inhibition). The “Plant Response Index (E)” value (Common Lambsquarters; Table III, 2 WAT, 1.1 kg/h) was 2 (50-74% inhibition), the “Plant Response Index (E)” value (Common Lambsquarters; Table III, 2 WAT, 5.6 kg/h) was 3 (75-99% inhibition) and the “Plant Response Index (T)” value (Large Crabgrass) was 3 (75-99% inhibition). For the same molecule, the “Plant Response Index (O)” value (Rice; 1.1 kg/h) was 0 (0-24% inhibition), the “Plant Response Index (O)” value (Rice; 5.6 kg/h) was 0 (0-24% inhibition) and the “Plant Response Index (J)” value (Downy Brome; [1]) was 0 (0-24% inhibition). For the same molecule, the “Plant Response Index (J)” value (Downy Brome; [2]) was 1 (25-49% inhibition), the “Plant Response Index (J)” value (Downy Brome; [3]) was 0 (0-24% inhibition) and the “Plant Response Index (J)” value (Downy Brome; [4]) was 1 (25-49% inhibition). The “Plant Response Index (J)” value (Downy Brome; Table III, 2 WAT, 1.1 kg/h) was 0 (0-24% inhibition), the “Plant Response Index (J)” value (Downy Brome; Table III, 2 WAT, 5.6 kg/h) was 1 (25-49% inhibition) and the “Plant Response Index (Q)” value (Wild Buckwheat; 1.1 kg/h) was 0 (0-24% inhibition). The “Plant Response Index (Q)” value (Wild Buckwheat; 5.6 kg/h) was 0 (0-24% inhibition), the “Plant Response Index (B)” value (Cocklebur; [1]) was 1 (25-49% inhibition) and the “Plant Response Index (B)” value (Cocklebur; [2]) was 2 (50-74% inhibition). The “Plant Response Index (B)” value (Cocklebur; [3]) was 0 (0-24% inhibition), the “Plant Response Index (B)” value (Cocklebur; [4]) was 2 (50-74% inhibition) and the “Plant Response Index (B)” value (Cocklebur; Table III, 2 WAT, 1.1 kg/h) was 0 (0-24% inhibition). For the same molecule, the “Plant Response Index (B)” value (Cocklebur; Table III, 2 WAT, 5.6 kg/h) was 2 (50-74% inhibition), the “Plant Response Index (M)” value (Sugar Beet) was 3 (75-99% inhibition) and the “Plant Response Index (I)” value (Johnsongrass; 2 WAT, 5.6 kg/h) was 0 (0-24% inhibition). For the same molecule, the “Plant Response Index (I)” value (Johnsongrass; 2 WAT, 11.2 kg/h) was 1 (25-49% inhibition), the “Plant Response Index (I)” value (Johnsongrass; 4 WAT, 5.6 kg/h) was 0 (0-24% inhibition) and the “Plant Response Index (I)” value (Johnsongrass; 4 WAT, 11.2 kg/h) was 1 (25-49% inhibition). The “Plant Response Index (H)” value (Quackgrass; 2 WAT, 5.6 kg/h) was 0 (0-24% inhibition), the “Plant Response Index (H)” value (Quackgrass; 2 WAT, 11.2 kg/h) was 1 (25-49% inhibition) and the “Plant Response Index (H)” value (Quackgrass; 4 WAT, 5.6 kg/h) was 0 (0-24% inhibition). For the same molecule, the “Plant Response Index (H)” value (Quackgrass; 4 WAT, 11.2 kg/h) was 1 (25-49% inhibition), the “Plant Response Index (R)” value (Hemp Sesbania; 1.1 kg/h) was 0 (0-24% inhibition) and the “Plant Response Index (R)” value (Hemp Sesbania; 5.6 kg/h) was 0 (0-24% inhibition). The “Plant Response Index (F)” value (Pennsylvania Smartweed; [1]) was 1 (25-49% inhibition), the “Plant Response Index (F)” value (Pennsylvania Smartweed; [2]) was 3 (75-99% inhibition) and the “Plant Response Index (F)” value (Pennsylvania Smartweed; [3]) was 1 (25-49% inhibition). For the same molecule, the “Plant Response Index (F)” value (Pennsylvania Smartweed; [4]) was 3 (75-99% inhibition), the “Plant Response Index (F)” value (Pennsylvania Smartweed; Table III, 2 WAT, 1.1 kg/h) was 2 (50-74% inhibition) and the “Plant Response Index (F)” value (Pennsylvania Smartweed; Table III, 2 WAT, 5.6 kg/h) was 2 (50-74% inhibition). For the same molecule, the “Plant Response Index (G)” value (Yellow Nutsedge; 2 WAT, 5.6 kg/h) was 1 (25-49% inhibition), the “Plant Response Index (G)” value (Yellow Nutsedge; 2 WAT, 11.2 kg/h) was 2 (50-74% inhibition) and the “Plant Response Index (G)” value (Yellow Nutsedge; 4 WAT, 5.6 kg/h) was 2 (50-74% inhibition). The “Plant Response Index (G)” value (Yellow Nutsedge; 4 WAT, 11.2 kg/h) was 2 (50-74% inhibition), the “Plant Response Index (L)” value (Soybean; 1.1 kg/h) was 0 (0-24% inhibition) and the “Plant Response Index (L)” value (Soybean; 5.6 kg/h) was 0 (0-24% inhibition). The “Plant Response Index (S)” value (Panicum Spp) was 3 (75-99% inhibition), the “Plant Response Index (C)” value (Velvetleaf; [1]) was 0 (0-24% inhibition) and the “Plant Response Index (C)” value (Velvetleaf; [2]) was 2 (50-74% inhibition). The “Plant Response Index (C)” value (Velvetleaf; [3]) was 0 (0-24% inhibition), the “Plant Response Index (C)” value (Velvetleaf; [4]) was 2 (50-74% inhibition) and the “Plant Response Index (C)” value (Velvetleaf; Table III, 2 WAT, 5.6 kg/h) was 2 (50-74% inhibition). For the same molecule, the “Plant Response Index (A)” value (Canada Thistle; 2 WAT, 5.6 kg/h) was 0 (0-24% inhibition), the “Plant Response Index (A)” value (Canada Thistle; 2 WAT, 11.2 kg/h) was 2 (50-74% inhibition) and the “Plant Response Index (A)” value (Canada Thistle; 4 WAT, 5.6 kg/h) was 0 (0-24% inhibition). For the same molecule, the “Plant Response Index (A)” value (Canada Thistle; 4 WAT, 11.2 kg/h) was 2 (50-74% inhibition), the “Plant Response Index (K)” value (Barnyardgrass; [1]) was 1 (25-49% inhibition) and the “Plant Response Index (K)” value (Barnyardgrass; [2]) was 2 (50-74% inhibition). The “Plant Response Index (K)” value (Barnyardgrass; [3]) was 2 (50-74% inhibition), the “Plant Response Index (K)” value (Barnyardgrass; [4]) was 3 (75-99% inhibition) and the “Plant Response Index (K)” value (Barnyardgrass; Table III, 2 WAT, 5.6 kg/h) was 2 (50-74% inhibition).
